Results as given in a melting point compilation (Tetko et al.; mined from patent text by program, amines drawn as free bases though some values may be those of a salt).

| Compound | melting point |
| --- | --- |
| O=C(OC1CCCC1)c1cc([N+](=O)[O-])c(F)cc1Cl | 44 to 45 °C |
| Nc1ccc(S(=O)(=O)Nc2ccc(Cl)cc2Cl)cc1C(=O)O | 224 °C |
| CCCc1nc(C(=O)C(C)C)c(C#N)[nH]1 | 90.5 to 91 °C |
| CCCCc1nc2ccccc2n1Cc1ccc(C#N)cc1 | 130 °C |
| COc1ccccc1-c1cc(S(=O)(=O)c2ccc(N)cc2)cc(N2CCCC2)n1 | 217 to 219 °C |
| FC(F)(F)Oc1ccc(-c2ccc3c(ccn3Cc3ccccc3)c2)cc1 | 62 to 63 °C |
| COc1ccc(-c2cc(C(=O)NCc3ccccc3)c(=O)n(CC3CCCC3)n2)cc1 | 108 °C |
| CC(C)(C)OC(=O)NCC(=O)OCCCNc1ccc(O)c2c1C(=O)c1ccccc1C2=O | 124 °C |
| O=C(O)CCSC(=S)Nc1ccc(Oc2ccc([N+](=O)[O-])cc2)cc1 | 146 °C |
| Cc1ccc(S(=O)(=O)OCCCC2CCN(C(=O)OCc3ccccc3)CC2)cc1 | 59 to 60 °C |
| CC(=O)OCCc1cc2c(s1)SCCC1CC(=O)NN=C21 (stereo unspecified) | 106 to 108 °C |
| Cc1cc(N(C)Cc2ccc(-c3ccc(C(F)(F)F)cc3)nc2C)cc(C)c1OCC(=O)O | 137 to 138 °C |
| O=C1c2ccccc2C(=O)N1c1cccc(CBr)n1 | 169 to 170 °C |
| COc1ccc(C=C2c3ccccc3C(=O)c3ccccc32)cc1OCC(=O)N1CCC(CO[N+](=O)[O-])CC1 | 63 to 65 °C |
| CCCCCCCCCCCc1[nH]c2cc(C(=O)O)ccc2c1C | 153 to 156 °C |
| COC(=O)CCNC(=O)C1CCCN1C(=O)OC(C)(C)C (stereo unspecified) | 70 °C |
| CN(c1ccc(OC2CCCC2)cc1)S(C)(=O)=O | 120 to 122 °C |

Further lines, results first:

| melting point | Compound |
| --- | --- |
| 252 to 254 °C | Cc1csc(NC(=O)c2cn(-c3ccccc3)c3ccccc3c2=O)n1 |
| 140 to 150 °C | CCCCn1ccc(Cc2cnc(NCCCCc3ncc(Br)cc3N)[nH]c2=O)cc1=O |
| 89 to 92 °C | CCCOC(=O)C(OC)C(=O)Nc1cc(Cl)cc(Cl)c1 (stereo unspecified) |
| 133 °C | Cc1noc2ncnc(NCCC(C)C)c12 |
| < 20 °C | CC1c2ccccc2CCC1CC#N (stereo unspecified) |
| 65 to 66 °C | CNc1cc(Cl)ccc1C(C)=O |
| 123 to 132 °C | CC(C)(C)NC(=O)[C@@H]1CCCN1C(=O)[C@@H](O)[C@H](Cc1ccccc1)NC(=O)[C@H](CC(N)=O)NC(=O)COc1ccc(NC(=O)CNCCN2CCOCC2)cc1 |
| 119 to 122 °C | COc1ccc(F)cc1OCCNCCCc1c[nH]c2ccc(F)cc12 |
| 79 to 80 °C | CCOC(=O)C(O)(CC(C)(C)c1ccc(OC)cc1)C(F)(F)F (stereo unspecified) |
| 155 to 156 °C | O=C(O)CCc1cn(Cc2ccc(OCCn3ncc4ccccc4c3=O)cc2)nc1-c1ccccc1 |
| 132 to 136 °C | CCOC(=O)c1ccc(O)cc1SC |
| 251 to 252 °C | Cc1cc2c(-c3ccccc3Cl)c(C(=O)O)c(=O)n(C)c2cc1C |
| 88 to 89 °C | OC1CCN(CCCc2noc3cc(F)ccc23)CC1 |
| 233 °C | CCCC1(Br)Cc2c(c(C)c(C)c3oc(C(=O)O)cc23)C1=O (stereo unspecified) |
| 114 °C | COC(=O)c1ccc(C#Cc2ccccc2)cc1 |
| 162 to 164 °C | OCCNc1nc2ccccc2o1 |
| 143 to 145 °C | Cc1nc(N2CCC(Cc3ccc(OC(F)F)cc3)C2=O)sc1C(=O)NCc1ccc(F)cc1 (stereo unspecified) |
| 75 to 76 °C | CCCc1c(OCc2ccc(CC#N)cc2)ccc(C(C)=O)c1O |
| 31 to 33 °C | CCc1n[nH]c(CC)c1CCCCCCOc1ccc(Br)cc1 |
| 83 to 86 °C | Oc1cc(Br)cc(O)c1F |
| 78 to 79 °C | CCCCCCCCCCCCCCCCc1nc(N(C)C)nc(OC)c1O |
| < 30 °C | Cc1ccc(S(=O)(=O)OC2CCCC2)cc1 |
| 175 °C | N#Cc1cc2c(c(C(=O)O)c1)NCCCC2 |
| 150 to 152 °C | O=C1NC(=O)C(CC#Cc2cc(C(F)(F)F)cc(C(F)(F)F)c2)(S(=O)(=O)c2ccccn2)S1 (stereo unspecified) |
